From patent publication US20070275984A1, “Novel Thieno-Pyridine and Thieno-Pyrimidine Derivatives and Their Use as Positive Allosteric Modulators of Mglur2-Receptors” (JANSSEN PHARMACEUTICA N.V., priority 2004, published 2007)
Values joined by “and” are separate entries in the source; they are usually repeats but may differ in a detail not shown here. Equal values may be shown once.

Key:
[1] = biological target: T1, native rat mGluR2 (Rattus norvegicus, UniProt P31421); experiment: [35S]GTPγS binding assay using cortical rat brain membranes, potentiation of a selective mGluR2 agonist; format: biochemical; conditions: for Activity: left-ward shift of agonist mGluR2 concentration-response curve: rat cortical membranes, selective mGluR2 agonist such as LY379268, in the presence of 3 or 10 μM of positive allosteric modulator
T1 construct: from tissue; host or cells: cerebral cortex of Sprague-Dawley rats (membrane preparation)
T1 sequence (P31421 19-872): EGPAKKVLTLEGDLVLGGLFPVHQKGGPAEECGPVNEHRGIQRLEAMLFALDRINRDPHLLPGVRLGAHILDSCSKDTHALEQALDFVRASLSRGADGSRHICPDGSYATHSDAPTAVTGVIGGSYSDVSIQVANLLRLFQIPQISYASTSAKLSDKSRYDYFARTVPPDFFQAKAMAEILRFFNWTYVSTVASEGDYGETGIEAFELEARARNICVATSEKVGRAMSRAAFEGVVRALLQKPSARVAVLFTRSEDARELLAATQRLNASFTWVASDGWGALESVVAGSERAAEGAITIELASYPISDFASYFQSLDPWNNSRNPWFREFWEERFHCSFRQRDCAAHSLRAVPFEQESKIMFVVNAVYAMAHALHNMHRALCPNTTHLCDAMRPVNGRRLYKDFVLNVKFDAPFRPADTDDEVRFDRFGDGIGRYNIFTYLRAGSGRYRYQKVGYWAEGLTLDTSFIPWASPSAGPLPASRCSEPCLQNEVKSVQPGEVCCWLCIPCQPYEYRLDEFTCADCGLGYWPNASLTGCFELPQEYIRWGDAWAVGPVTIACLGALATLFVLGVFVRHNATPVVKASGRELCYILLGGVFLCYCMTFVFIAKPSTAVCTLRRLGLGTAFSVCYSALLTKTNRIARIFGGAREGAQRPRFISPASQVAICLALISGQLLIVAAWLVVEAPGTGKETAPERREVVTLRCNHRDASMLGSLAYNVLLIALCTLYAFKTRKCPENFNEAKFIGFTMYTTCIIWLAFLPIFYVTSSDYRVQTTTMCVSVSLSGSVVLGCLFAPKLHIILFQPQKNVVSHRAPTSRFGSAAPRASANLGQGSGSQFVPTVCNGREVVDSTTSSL
Description: The [^35S]GTPγS binding is a functional membrane-based assay used to study G-protein coupled receptor (GPCR) function. This method is using a binding assay to assess the initial step in receptor-mediated G protein activation in membranes prepared from cells expressing recombinant GPCR or using membranes from discrete area of the rat brain. In brief, the assay is measuring the activation of G proteins by catalyzing the exchange of guanosine 5′-diphosphate (GDP) by guanosine 5′-triphosphate (GTP) at the α subunit. The GTP-bounded G proteins dissociate into two subunits, Gα-GTP and Gβγ, which in turn regulate intracellular enzymes and ion channels. GTP is rapidly hydrolysed by the Gα-subunit (GTPases) and the G protein is deactivated and ready for new GTP exchange cycle (Harper (1998) Curr Protoc Pharmacol 2.6.1-10, John Wiley & Sons, Inc.). [^35S]GTPγS, a non-hydrolyzed analogue of GTP, is used for this purpose.
This method is widely used to study receptor activation of G protein in membranes prepared from rat brain tissue, including mGluR2 receptors (Schaffhauser et al 2003, Pinkerton et al, 2004). mGluR2 receptors are expressed in the rat brain cortex (Mutel et al (1998) J. Neurochem. 71:2558-64; Schaffhauser et al (1998) Mol. Pharmacol. 53:228-33) and are coupled to Gαi-protein, a preferential coupling for this method.
[^35S]GTPγS binding assay using cortical rat brain membranes preparation was used and adapted from Schaffhauser et al ((2003) Mol. Pharmacol. 4:798-810) for the detection of the positive allosteric modulator properties of the compounds of this invention on native rat mGluR2. In order to eliminate the possible interference with group III Gαi-protein coupled mGluRs (mGluR4, mGluR7, mGluR8; mGluR6 is not expressed in the cortex (Laurie et al (1997) Neuropharmacol. 36:145-52)), the potentiation of the response to a selective mGluR2 agonist, such as DCG-IV (Cartmell et al. (1998) Br. J. Pharmacol. 123(3):497-504) or LY379268 (Monn et al. (1999) J. Med. Chem 42:1027-40), by compounds described in the present invention was performed.
Membrane preparation. Cortices were dissected out from brains of 200-300 g Sprague-Dawley rats (Charles River Laboratories, L'Arbresle, France). Tissues were homogenized in 6 volumes (vol/wt) of 10% sucrose at 4° C. using a glass-teflon homogenizer. The homogenate was centrifuged at 1250 g for 10 min, and the supernatant was centrifuged at 40,000 g for 20 min (4° C.). The pellet was resuspended in 25 ml water using a Polytron disrupter (Kinematica AG, Luzern, Switzerland) and centrifuged for 10 min at 3000 g. (4° C.). The supernatant was centrifuged at 40,000 g for 20 min (4° C.). The supernatant was discarded and the pellet washed twice by resuspension in 10 volumes 5 mM HEPES-KOH, pH 7.4. The homogenate was frozen and thawed twice and centrifuged at 40,000 g for 20 min. The final pellet was resuspended in 5 mM HEPES-KOH, pH 7.4 and stored at −80° C. before its use. Protein concentration was determined by the Bradford method (Bio-Rad protein assay, Reinach, Switzerland) with bovine serum albumin as standard.
[^35S]GTPγS binding assay. Measurement of mGluR2 positive allosteric modulators properties in rat cortical membranes was performed as follows: rat cortical membrane (1.5 μg) were incubated in 96-well microplates for 15 min at 30° C. in assay buffer (50 mM HEPES pH 7.4, 100 mM NaCl, 5 mM MgCl2, 10 μM GDP, 10 μg/ml saponin, EGTA 0.2 mM) with increasing concentrations of positive allosteric modulator (from 1 nM to 10 μM) and a minimal concentration of DCG-IV or LY379268, a selective mGluR2 agonist, that has been determined in previous experiments and that corresponds to the EC20, a concentration that gives 20% of the maximal response of the agonist, and is in accordance to published data (Pin et al. (1999) Eur. J. Pharmacol. 375:277-294). […]

Row | melting point | increase of the [GTPi^5S] binding induced by 50 nM of DCG-IV ([1]; 10 μM compound together with mGluR2 agonist, compared to agonist alone, Figure B) | Structure (SMILES) | Activity: left-ward shift of agonist mGluR2 concentration-response curve [1] | agonistic activity when tested in the absence of 50 nM DCG-IV ([1]; 10 μM compound, compared to buffer value (0% of maximal response), Figure B)
1 | 155 °C and 155 to 155.5 °C | – | OCc1cc2c(NCCc3ccccc3)ncnc2s1 [Compound 58, (4-(phenethylamino)thieno[2,3-d]pyrimidin-6-yl)methanol] | ++ (left-ward shift of agonist mGluR2 concentration-response curve [2- to 3.5-fold]) | –
2 | 248 °C | – | CC(=O)Nc1ccc(CCNc2nc(C)nc3sc(C)cc23)cc1 [Compound 43, N-(4-(2-(2,6-dimethylthieno[2,3-d]pyrimidin-4-ylamino)ethyl)-phenyl)acetamide] | ++ (left-ward shift of agonist mGluR2 concentration-response curve [2- to 3.5-fold]) | –
3 | 138.5 °C | – | COc1nc(NCCc2ccccc2)c2cc(C)sc2n1 [Compound 15, 2-methoxy-6-methyl-N-phenethylthieno[2,3-d]pyrimidin-4-amine] | +++ (left-ward shift of agonist mGluR2 concentration-response curve [>3.5-fold]) | –
4 | 127 °C | – | Cc1nc(NCCc2ccc(N)cc2)c2cc(C)sc2n1 [Compound 42, N-(4-aminophenethyl)-2,6-dimethylthieno[2,3-d]pyrimidin-4-amine] | ++ (left-ward shift of agonist mGluR2 concentration-response curve [2- to 3.5-fold]) | –
5 | 123.5 °C | – | CCCc1cc2c(NCCc3ccc(O)cc3)ncnc2s1 [Compound 82, 4-(2-(6-propylthieno[2,3-d]pyrimidin-4-ylamino)ethyl)phenol] | +++ (left-ward shift of agonist mGluR2 concentration-response curve [>3.5-fold]) | –
6 | 205 °C | – | Cc1nc(NCCc2ccc(OCc3nn[nH]n3)cc2)c2cc(C)sc2n1 [Compound 46, N-(4-((2H-tetrazol-5-yl)methoxy)phenethyl)-2,6-dimethylthieno[2,3-d]pyrimidin-4-amine] | +++ (left-ward shift of agonist mGluR2 concentration-response curve [>3.5-fold]) | –
7 | 124.5 °C | – | CCc1cc2c(NCCCc3ccccc3)ncnc2s1 [Compound 75, 6-ethyl-N-(3-phenylpropyl)thieno[2,3-d]pyrimidin-4-amine] | ++ (left-ward shift of agonist mGluR2 concentration-response curve [2- to 3.5-fold]) | –
8 | 88 °C | – | CCc1cc2c(NCCc3ccccc3)ccnc2s1 [Compound 96, 2-ethyl-N-phenethylthieno[2,3-b]pyridin-4-amine] | +++ (left-ward shift of agonist mGluR2 concentration-response curve [>3.5-fold]) | –
9 | 138 °C | – | Cc1nc(NCCc2cccnc2)c2cc(C)sc2n1 [Compound 49, 2,6-dimethyl-N-(2-(pyridin-3-yl)ethyl)thieno[2,3-d]pyrimidin-4-amine] | + (left-ward shift of agonist mGluR2 concentration-response curve [<2-fold]) | –
10 | 124.2 °C | – | Cc1nc(NCc2ccccc2)c2cc(C)sc2n1 [Compound 5, N-benzyl-2,6-dimethylthieno[2,3-d]pyrimidin-4-amine] | + (left-ward shift of agonist mGluR2 concentration-response curve [<2-fold]) | –
11 | 110.5 °C | – | CCCc1cc2c(NCCc3ccccc3)ncnc2s1 [Compound 79, N-phenethyl-6-propylthieno[2,3-d]pyrimidin-4-amine] | +++ (left-ward shift of agonist mGluR2 concentration-response curve [>3.5-fold]) | –
12 | 129 °C | significantly potentiated | COc1ccc(CCNc2nc(C)nc3sc(C)cc23)cc1 [Compound 28, N-(4-methoxyphenethyl)-2,6-dimethylthieno[2,3-d]pyrimidin-4-amine] | – | no statistically significant agonistic activity
13 | – | – | COc1ccc(CCNc2nc(C)nc3sc(Cc4ccccc4)cc23)cc1 [Compound 61, N-(4-methoxyphenethyl)-6-benzyl-2-methylthieno[2,3-d]pyrimidin-4-amine] | ++ (left-ward shift of agonist mGluR2 concentration-response curve [2- to 3.5-fold]) | –
